Values of other authors as cited in PubChem BioAssay AID1259409 (Chemical Carcinogenesis Research Information System (CCRIS), 2018).

Test system: rodent chemically induced tumor inhibition, incidence and multiplicity
Test: CCRIS tumor inhibitor studies

Cc1cc(C(C)(C)C)c(O)c(C(C)(C)C)c1
tumour outcome (control, treated, inhibition, significance) (Carcinogen: 2-ACETYLAMINOFLUORENE, 53-96-3, Dose [Inhibitor]: 0, 3000 PPM IN DIET CONCURRENTLY WITH CARCINOGEN FOR STUDY DURATION (STUDY DURATION: 76 WK), Route [Inhibitor]: ORAL, Species: RAT, Strain/Sex: F344/MALE, Target Tissue: Type of Lesion: LIVER: HEPATOCELLULAR TUMOR, Dose [Carcinogen]: 50 PPM IN DIET FOR 76 WK): 20/20 (100%), 18/18 (100%), 0%, not calculated
outcome (Carcinogen: 2-ACETYLAMINOFLUORENE, 53-96-3, Dose [Inhibitor]: 0, 6000 PPM IN DIET CONCURRENTLY WITH CARCINOGEN FOR STUDY DURATION (STUDY DURATION: 76 WK), Route [Inhibitor]: ORAL, Species: RAT, Strain/Sex: F344/MALE, Target Tissue: Type of Lesion: LIVER: HEPATOCELLULAR CARCINOMA, Dose [Carcinogen]: 50 PPM IN DIET FOR 76 WK): 4.8, 0.7, 85%, p<0.05
tumour outcome (control, treated, inhibition, significance) (Carcinogen: 2-ACETYLAMINOFLUORENE, 53-96-3, Dose [Inhibitor]: 0, 6000 PPM IN DIET CONCURRENTLY WITH CARCINOGEN FOR STUDY DURATION (STUDY DURATION: 76 WK), Route [Inhibitor]: ORAL, Species: RAT, Strain/Sex: F344/MALE, Target Tissue: Type of Lesion: LIVER: HEPATOCELLULAR TUMOR, Dose [Carcinogen]: 50 PPM IN DIET FOR 76 WK): 20/20 (100%), 19/19 (100%), 0%, not calculated
tumour outcome (control, treated, inhibition, significance) (Carcinogen: 7,12-DIMETHYLBENZ(A)ANTHRACENE, 57-97-6, Dose [Inhibitor]: 0.3% IN DIET FROM WEANING ONWARD (STUDY DURATION: 6 MO AFTER CARCINOGEN ADMINISTRATION), Route [Inhibitor]: ORAL, Species: RAT, Strain/Sex: SPRAGUE-DAWLEY/FEMALE, Target Tissue: Type of Lesion: MAMMARY GLAND: ADENOCARCINOMA, Dose [Carcinogen]: 10 MG/RAT IN 1 ML STRIPPED CORN OIL, SINGLE DOSE ON D 50 FOLLOWING 24 HR FASTING PERIOD, Promoter: NONE USED): 100%, 55%, 45%, not calculated
tumour outcome (control, treated, inhibition, significance) (Carcinogen: 7,12-DIMETHYLBENZ(A)ANTHRACENE, 57-97-6, Dose [Inhibitor]: 2500 MG/KG IN DIET STARTING 1 WK AFTER CARCINOGEN AND CONTINUING FOR 30 WK (STUDY DURATION: 30 WK), Route [Inhibitor]: ORAL, Species: RAT, Strain/Sex: SPRAGUE-DAWLEY/FEMALE, Target Tissue: Type of Lesion: MAMMARY GLAND: TUMOR, Dose [Carcinogen]: 8 MG IN 1 ML SESAME OIL ADMINISTERED ONCE, Promoter: NONE USED): 88%, 68%, 23%, not significant
tumour outcome (control, treated, inhibition, significance) (Carcinogen: 7,12-DIMETHYLBENZ(A)ANTHRACENE, 57-97-6, Dose [Inhibitor]: 5000 MG/KG IN DIET STARTING 1 WK AFTER CARCINOGEN AND CONTINUING FOR 30 WK (STUDY DURATION: 30 WK), Route [Inhibitor]: ORAL, Species: RAT, Strain/Sex: SPRAGUE-DAWLEY/FEMALE, Target Tissue: Type of Lesion: MAMMARY GLAND: TUMOR, Dose [Carcinogen]: 8 MG IN 1 ML SESAME OIL ADMINISTERED ONCE, Promoter: NONE USED): 88%, 72%, 18%, not significant
tumour outcome (control, treated, inhibition, significance) (Carcinogen: 7,12-DIMETHYLBENZ(A)ANTHRACENE, 57-97-6, Dose [Inhibitor]: 5000 MG/KG IN DIET STARTING 2 WK BEFORE UNTIL 1 WK AFTER CARCINOGEN ADMINISTRATION (STUDY DURATION: 32 WK), Route [Inhibitor]: ORAL, Species: RAT, Strain/Sex: SPRAGUE-DAWLEY/FEMALE, Target Tissue: Type of Lesion: MAMMARY GLAND: TUMOR, Dose [Carcinogen]: 8 MG IN 1 ML SESAME OIL ADMINISTERED ONCE, Promoter: NONE USED): 88%, 52%, 41%, p<0.01
tumour outcome (control, treated, inhibition, significance) (Carcinogen: 7,12-DIMETHYLBENZ[A]ANTHRACENE, 57-97-6, Dose [Inhibitor]: 0, 200 MG/KG BW/D FOR 3 WK BEGINNING 2 WK PRIOR TO CARCINOGEN DOSE (STUDY DURATION: 24 WK), Route [Inhibitor]: INTRAPERITONEAL, Species: RAT, Strain/Sex: SPRAGUE-DAWLEY/FEMALE, Target Tissue: Type of Lesion: MAMMARY GLAND: TUMOR, Dose [Carcinogen]: 33.3 MG/KG BW IN 0.25 ML CORN OIL ONCE AT 50 D OF AGE, Promoter: NONE USED): 91%, 56%, 38%, not calculated
tumour outcome (control, treated, inhibition, significance) (Carcinogen: 7,12-DIMETHYLBENZ[A]ANTHRACENE, 57-97-6, Dose [Inhibitor]: 0.3% IN DIET, DAILY BEFORE, SIMULTANEOUS WITH, AND THROUGHOUT THE EXPERIMENT, HIGH POLYUNSATURATED FAT DIET (STUDY DURAT, Route [Inhibitor]: ORAL, Species: RAT, Strain/Sex: SPRAGUE-DAWLEY/FEMALE, Target Tissue: Type of Lesion: MAMMARY GLAND: PARENCHYMAL CARCINOMA, Dose [Carcinogen]: 10 MG IN 1 ML CORN OIL AT 50 D OF AGE ONCE, Promoter: NONE USED): 30/30 (100%), 16/30 (53%), 47%, not calculated
tumour outcome (control, treated, inhibition, significance) (Carcinogen: 7,12-DIMETHYLBENZ[A]ANTHRACENE, 57-97-6, Dose [Inhibitor]: 0.3% IN DIET, DAILY BEFORE, SIMULTANEOUS WITH, AND THROUGHOUT THE EXPERIMENT, HIGH SATURATED FAT DIET (STUDY DURATION: 3, Route [Inhibitor]: ORAL, Species: RAT, Strain/Sex: SPRAGUE-DAWLEY/FEMALE, Target Tissue: Type of Lesion: MAMMARY GLAND: PARENCHYMAL CARCINOMA, Dose [Carcinogen]: 10 MG IN 1 ML CORN OIL AT 50 D OF AGE ONCE, Promoter: NONE USED): 23/30 (77%), 9/30 (30%), 60%, not calculated
tumour outcome (control, treated, inhibition, significance) (Carcinogen: 7,12-DIMETHYLBENZ[A]ANTHRACENE, 57-97-6, Dose [Inhibitor]: 0.3% IN DIET, DAILY BEFORE, SIMULTANEOUS WITH, AND THROUGHOUT THE EXPERIMENT, LOW FAT DIET (STUDY DURATION: 32 WK), Route [Inhibitor]: ORAL, Species: RAT, Strain/Sex: SPRAGUE-DAWLEY/FEMALE, Target Tissue: Type of Lesion: MAMMARY GLAND: PARENCHYMAL CARCINOMA, Dose [Carcinogen]: 10 MG IN 1 ML CORN OIL AT 50 D OF AGE ONCE, Promoter: NONE USED): 13/30 (43%), 10/30 (33%), 23%, not calculated
tumour outcome (control, treated, inhibition, significance) (Carcinogen: 7,12-DIMETHYLBENZ[A]ANTHRACENE, 57-97-6, Dose [Inhibitor]: 0.3% IN HIGH POLYUNSATURATED FAT DIET DAILY STARTING 29 D BEFORE CARCINOGEN TREATMENT AND CONTINUING FOR THE DURATION OF, Route [Inhibitor]: ORAL, Species: RAT, Strain/Sex: SPRAGUE-DAWLEY/FEMALE, Target Tissue: Type of Lesion: MAMMARY GLAND: ADENOCARCINOMA, Dose [Carcinogen]: 10 MG IN 1 ML STRIPPED CORN OIL ONCE AT AGE 50 D, Promoter: NONE USED): 100%, 55%, 45%, not calculated
tumour outcome (control, treated, inhibition, significance) (Carcinogen: 7,12-DIMETHYLBENZ[A]ANTHRACENE, 57-97-6, Dose [Inhibitor]: 0.3% IN HIGH SATURATED FAT DIET DAILY STARTING 29 D BEFORE CARCINOGEN TREATMENT AND CONTINUING FOR THE DURATION OF THE S, Route [Inhibitor]: ORAL, Species: RAT, Strain/Sex: SPRAGUE-DAWLEY/FEMALE, Target Tissue: Type of Lesion: MAMMARY GLAND: ADENOCARCINOMA, Dose [Carcinogen]: 10 MG IN 1 ML STRIPPED CORN OIL ONCE AT AGE 50 D, Promoter: NONE USED): 65%, 35%, 46%, not calculated
tumour outcome (control, treated, inhibition, significance) (Carcinogen: 7,12-DIMETHYLBENZ[A]ANTHRACENE, 57-97-6, Dose [Inhibitor]: 0.3% IN LOW FAT DIET DAILY STARTING 29 D BEFORE CARCINOGEN TREATMENT AND CONTINUING FOR THE DURATION OF THE STUDY (STUDY, Route [Inhibitor]: ORAL, Species: RAT, Strain/Sex: SPRAGUE-DAWLEY/FEMALE, Target Tissue: Type of Lesion: MAMMARY GLAND: ADENOCARCINOMA, Dose [Carcinogen]: 10 MG IN 1 ML STRIPPED CORN OIL ONCE AT AGE 50 D, Promoter: NONE USED): 35%, 25%, 29%, not calculated
tumour outcome (control, treated, inhibition, significance) (Carcinogen: 7,12-DIMETHYLBENZ[A]ANTHRACENE, 57-97-6, Dose [Inhibitor]: 1 MG APPLIED ONCE 5 MIN BEFORE DMBA (STUDY DURATION 20 WK), Route [Inhibitor]: DERMAL, Species: MOUSE, Strain/Sex: CD-1/FEMALE, Target Tissue: Type of Lesion: SKIN: PAPILLOMA, Dose [Carcinogen]: 2.56 UG APPLIED ONCE 5 MIN AFTER INHIBITOR, Promoter: 12-O-TETRADECANOYLPHORBOL-13-ACETATE, 16561-29-8): 80%, 58%, 28%, not calculated
